The values that follow come from patent US20260335279A1, “METHODS OF TREATING ISCHEMIA-REPERFUSION INJURIES” (University of Cincinnati, priority 2022, published 2026).

Experiment [1] relates to Ugp. Kind of experiment: Ugp mRNA expression after I/R. The class given is in vivo, mouse. The conditions noted are these: ML-264 treatment. How it is done: (§1) The myocardial ischemia/reperfusion surgical protocol was applied as follows. Mice were anesthetized with 2% isoflurane inhalation until anesthesia was achieved. The animals' body temperature was maintained at 37 °C throughout the surgical procedure using a heating pad. A tracheal tube was placed via tracheal intubation and the respiration rate was set at 150 strokes/min with a tidal volume of 200 μL, using Minivent ventilator for mice (Model 845, Harvard Apparatus). A 1.2 cm incision was made over the left chest. After retraction of the pectoral major and minor muscles, the fourth intercostal space was exposed. […] The mouse was then monitored during the recovery period, which was generally completed within 3 to 5 minutes. […]
(§2) Total RNA was purified from heart tissue using the TRIzol reagent according to the instructions of the manufacturer (ThermoFischer Scientific, Cat. No.: 15596018). cDNA synthesis was performed using the Applied Biosystems High Capacity cDNA Reverse Transcription Kit (ThermoFischer Scientific, Cat. No.: 4368814) from 500 ng RNA, which had been treated with DNAase I (ThermoFischer Scientific, Cat. No.: 18068015). Quantitative real-time PCR was performed with the SYBR Select Master Mix (ThermoFischer Scientific, Cat. No.: 4472903) using the manufacturer's recommendations. […]

The subject of experiment [2] is BAX. Kind of experiment: BAX apoptotic protein in myocardium after I/R (Western blot). The conditions noted are these: ML264-treated group; 30 min ischemia, 2 h reperfusion. It counts as in vivo, mouse (C57BL/6). How it is done:
(§3) The myocardial ischemia/reperfusion surgical protocol was applied as follows. Mice were anesthetized with 2% isoflurane inhalation until anesthesia was achieved. The animals' body temperature was maintained at 37 °C throughout the surgical procedure using a heating pad. A tracheal tube was placed via tracheal intubation and the respiration rate was set at 150 strokes/min with a tidal volume of 200 μL, using Minivent ventilator for mice (Model 845, Harvard Apparatus). A 1.2 cm incision was made over the left chest. After retraction of the pectoral major and minor muscles, the fourth intercostal space was exposed. […] The left anterior descending coronary artery (LAD) was then located, sutured, and ligated at a site 3-4 mm distal to the origin of the artery under the left atrium using a 6-0 silk suture. […] The mouse was then monitored during the recovery period, which was generally completed within 3 to 5 minutes. […]
(§4) Isolated myocardial tissue/isolated primary murine cardiomyocytes were homogenized in radioimmunoprecipitation assay buffer (RIPA buffer) containing protease and phosphatase inhibitors (Thermo Fischer Scientific, Cat. No.: A32959). […] Relative densitometry was determined, and the β-actin protein was used as a loading control.
(§5) In order to unravel the mechanisms of KLF5-mediated cardiotoxicity, oxidative stress levels were evaluated at early reperfusion. […]

Experiment [3] has as its system cardiac fibrosis in mice. Kind of experiment: Masson's Trichrome staining, cardiac fibrosis in chronic model of I/R injury. The class given is in vivo, mouse (C57BL/6). Particulars: 30 min ischemia, 4 weeks reperfusion; two doses of ML264 at early reperfusion. How it is done: as §3, with “suture. The heart was allowed to stabilize for 15 min and right after, ischemia was induced by tightening the suture against a small piece of polyethylene tube.” for “suture.”
Tissue sectioning and Masson's Trichrome staining were performed. […] Fibrotic myocardial tissue size was measured as % area with respect to the total slice area in mouse hearts imaged at 0.8×. […]

Experiment [4] deals with Glut1. Kind of experiment: Glut1 mRNA after I/R. The class given is in vivo, mouse. The conditions noted are these: ML-264 treatment; vs I/R group treated with vehicle. How it is done:
as §1, §2

In experiment [5] the test system is BCL-XL. Kind of experiment: BCL-XL anti-apoptotic protein in myocardium after I/R (Western blot). The class given is in vivo, mouse (C57BL/6). The conditions noted are these: ML264-treated group; 30 min ischemia, 2 h reperfusion. How it is done: as §3, §4, §5
Experiment [6] relates to NOX4. Kind of experiment: NOX4 protein in myocardium after I/R (Western blot). The class given is in vivo, mouse (C57BL/6). The conditions noted are these: ML264 treatment, 30 min ischemia, 2 h reperfusion. How it is done:
as §3, §4, §5

Experiment [7] concerns IL-1β. Put plainly: IL-1β mRNA in ischemic myocardium. It counts as in vivo, mouse (C57BL/6). Particulars: evaluated at 2 h and 24 h of reperfusion, vs vehicle. How it is done:
as §1, §2

In experiment [8] the test system is Ugdh. Kind of experiment: Ugdh levels after I/R. It counts as in vivo, mouse. Particulars: among the three groups, ML-264 treatment. As to the method: as §1, §2
In experiment [9] the test system is Col3a1. Kind of experiment: Col3a1 mRNA in chronic model of I/R injury (real-time PCR). The conditions noted are these: 4 weeks post-I/R; vs IR group treated with vehicle. The class given is in vivo, mouse (C57BL/6). How it is done:
as §1, §2
For orientation: Quantitative PCR measures a nucleic acid by following its amplification.

For the molecule `CN(C(=O)CNC(=O)/C=C/c1cccc(Cl)c1)C1CCS(=O)(=O)CC1` [ML264], the “relative mRNA expression of Ugp” value in experiment [1] is given as “did not result in a change”. Also, the BAX apoptotic proteins entry in experiment [2] is given as “suppression”. Also, in [3], the “fibrotic scar tissue formation” value is listed as “significant reduction”. Besides, in [4], the “Glut1 levels (mRNA)” value is “trend towards reduced”. Further, in [5], the BCL-XL anti-apoptotic proteins result was “upregulation”. In addition, the NOX4 protein levels result in experiment [6] is “suppressed”. Further, the NOX4 levels result in [6] (FIG. 5C-5E (mRNA and protein)) is “significant suppression”. Besides, the “IL-1β mRNA levels” value in experiment [7] was “Significant suppression”. For the same molecule, in experiment [8], the Ugdh levels entry is “no effect”. Also, the “mRNA levels of Col3a1” value in [9] was “decreased”.
